In the NIST ThermoML archive (doi:10.1016/j.fluid.2007.04.023):

Conditions: Liquid, Vibrating tube method

CCCCCCCCCCCCC [tridecane]
Conditions	mass density [kg/m3]
313.01 K, 1023 kPa	743.49
313.01 K, 2030 kPa	744.27
313.01 K, 3025 kPa	745.05
313.01 K, 4027 kPa	745.74
313.01 K, 5014 kPa	746.51
313.01 K, 6024 kPa	747.18
313.01 K, 7021 kPa	747.95
313.01 K, 8036 kPa	748.69
313.01 K, 9019 kPa	749.41
313.01 K, 10018 kPa	750.14
313.01 K, 11030 kPa	750.86
313.01 K, 12006 kPa	751.51
313.01 K, 13017 kPa	752.24
313.01 K, 14035 kPa	752.95
313.01 K, 15021 kPa	753.59
313.01 K, 16019 kPa	754.27
313.01 K, 17019 kPa	754.94
313.01 K, 18024 kPa	755.61
313.01 K, 19025 kPa	756.27
313.01 K, 20043 kPa	756.91
313.01 K, 21011 kPa	757.52
313.01 K, 22020 kPa	758.16
313.01 K, 23018 kPa	758.79
313.01 K, 24004 kPa	759.44
313.01 K, 25036 kPa	760.12
322.92 K, 1017 kPa	736.15
322.92 K, 2006 kPa	736.94
322.92 K, 3025 kPa	737.83
322.92 K, 4021 kPa	738.62
322.92 K, 5021 kPa	739.42
322.92 K, 6043 kPa	740.18
322.92 K, 7018 kPa	740.9
322.92 K, 8022 kPa	741.72
322.92 K, 9008 kPa	742.44
322.92 K, 10012 kPa	743.18
322.92 K, 11015 kPa	743.93
322.92 K, 12006 kPa	744.71
322.92 K, 13030 kPa	745.38
322.92 K, 14010 kPa	746.12
322.92 K, 15026 kPa	746.81
322.92 K, 16024 kPa	747.53
322.92 K, 17016 kPa	748.22
322.92 K, 18010 kPa	748.89
322.92 K, 19007 kPa	749.56
322.92 K, 20023 kPa	750.22
322.92 K, 21020 kPa	750.92
322.92 K, 22010 kPa	751.57
322.92 K, 23040 kPa	752.26
322.92 K, 24006 kPa	752.95
322.92 K, 25006 kPa	753.6
332.78 K, 1015 kPa	729.19
332.78 K, 2020 kPa	730.06
332.78 K, 3022 kPa	730.83
332.78 K, 4016 kPa	731.63
332.78 K, 5020 kPa	732.47
332.78 K, 6016 kPa	733.27
332.78 K, 7006 kPa	734.09
332.78 K, 8018 kPa	734.9
332.78 K, 9013 kPa	735.71
332.78 K, 10008 kPa	736.52
332.78 K, 11016 kPa	737.3
332.78 K, 12007 kPa	738.05
332.78 K, 13012 kPa	738.79
332.78 K, 14021 kPa	739.55
332.78 K, 15011 kPa	740.26
332.78 K, 16020 kPa	741.03
332.78 K, 17015 kPa	741.74
332.78 K, 18005 kPa	742.47
332.78 K, 19017 kPa	743.19
332.78 K, 20014 kPa	743.89
332.78 K, 21016 kPa	744.66
332.78 K, 22046 kPa	745.35
332.78 K, 22994 kPa	745.97
332.78 K, 24032 kPa	746.67
332.78 K, 25030 kPa	747.38
342.64 K, 1022 kPa	722.03
342.64 K, 2014 kPa	722.93
342.64 K, 3025 kPa	723.84
342.64 K, 4021 kPa	724.7
342.64 K, 5020 kPa	725.59
342.64 K, 6020 kPa	726.44
342.64 K, 7008 kPa	727.27
342.64 K, 8026 kPa	728.15
342.64 K, 9007 kPa	728.98
342.64 K, 10010 kPa	729.81
342.64 K, 11012 kPa	730.63
342.64 K, 12014 kPa	731.46
342.64 K, 13011 kPa	732.27
342.64 K, 14008 kPa	733.03
342.64 K, 15029 kPa	733.84
342.64 K, 16006 kPa	734.58
342.64 K, 17016 kPa	735.35
342.64 K, 18019 kPa	736.09
342.64 K, 19006 kPa	736.85
342.64 K, 20001 kPa	737.59
342.64 K, 21023 kPa	738.34
342.64 K, 22008 kPa	739.06
342.64 K, 23005 kPa	739.79
342.64 K, 24032 kPa	740.52
342.64 K, 25024 kPa	741.14
352.47 K, 1013 kPa	714.88
352.47 K, 2022 kPa	715.88
352.47 K, 3010 kPa	716.8
352.47 K, 4020 kPa	717.71
352.47 K, 5019 kPa	718.65
352.47 K, 6011 kPa	719.55
352.47 K, 7017 kPa	720.47
352.47 K, 8014 kPa	721.35
352.47 K, 9022 kPa	722.24
352.47 K, 10031 kPa	723.11
352.47 K, 11010 kPa	723.98
352.47 K, 12003 kPa	724.82
352.47 K, 13024 kPa	725.71
352.47 K, 14013 kPa	726.54
352.47 K, 15007 kPa	727.34
352.47 K, 16016 kPa	728.16
352.47 K, 17007 kPa	728.94
352.47 K, 18020 kPa	729.77
352.47 K, 19011 kPa	730.53
352.47 K, 20013 kPa	731.29
352.47 K, 21032 kPa	732.07
352.47 K, 22020 kPa	732.84
352.47 K, 23020 kPa	733.6
352.47 K, 24021 kPa	734.36
352.47 K, 25024 kPa	735.14
362.25 K, 1020 kPa	707.72
362.25 K, 2026 kPa	708.74
362.25 K, 3018 kPa	709.77
362.25 K, 4006 kPa	710.71
362.25 K, 5021 kPa	711.73
362.25 K, 6019 kPa	712.7
362.25 K, 7029 kPa	713.67
362.25 K, 8017 kPa	714.54
362.25 K, 9011 kPa	715.51
362.25 K, 10011 kPa	716.42
362.25 K, 11021 kPa	717.35
362.25 K, 12018 kPa	718.24
362.25 K, 13014 kPa	719.11
362.25 K, 14000 kPa	719.97
362.25 K, 15017 kPa	720.85
362.25 K, 16026 kPa	721.7
362.25 K, 17019 kPa	722.52
362.25 K, 18034 kPa	723.36
362.25 K, 19016 kPa	724.17
362.25 K, 20004 kPa	725
362.25 K, 21015 kPa	725.8
362.25 K, 22022 kPa	726.63
362.25 K, 23008 kPa	727.42
362.25 K, 24034 kPa	728.22
362.25 K, 25010 kPa	729.02
